Test results as given in patent US7112586B2, “Substituted diamine derivatives useful as motilin antagonists” (Ortho-McNeil Pharmaceutical, Inc., priority 2000, dated 2006).

Columns and labels:
Motilin Receptor = molecular target: T1, Motilin Receptor (Oryctolagus cuniculus, UniProt G1T803); test: Motilin receptor binding, rabbit colon membranes, 125I porcine motilin; parameters: Rabbit Colon % Inh / inhibition / % Inh (Rabbit colon): dose or concentration left out as unconfirmed; conditions: rabbit colon membranes; for inhibition: read-out: Rabbit Colon % Inh; for IC50: read-out: Rabbit Colon IC50
T1 construct: The muscle tissue was homogenized in 10 volumes of 50 mM Tris-Cl; from tissue; host or cells: rabbit colon smooth muscle, crude membrane homogenate

[1] = tested on: motilin induced contraction; test: Rabbit tissue bath procedure: inhibition of motilin induced contraction of duodenum segments; parameters: species or system New Zealand White rabbit; conditions: 3 nM porcine motilin induced contraction, read-out: Tissues IC50
Experimental: Rabbit Tissue Bath Procedure
One New Zealand White rabbit (Covance) of either sex was euthanized with an IV injection of Sleepaway. The duodenum was quickly excised, the lumen rinsed with saline to clean, and the tissue placed in cold, aerated (95% O2–5% CO2) Tyrodes buffer (NaCl 136.9 mM, KCl 2.7 mM, CaCl2 1.8 mM, MgCl2 1.04 mM, NaH2PO4 0.42 mM, NaHCO3 11.9 mM, Glucose 5.55 mM, pH 7.4). The duodenum, being kept moist at all times, was cleaned of any excess mesenteric tissue, and then cut into 3 cm segments starting at the proximal end. Sixteen tissue segments were usually prepared from each duodenum. These segments were tied on both ends with 3-0 silk suture (Ethicon). One end of the tissue was attached to an S-hook on a custom made glass support rod (Crown Glass Co., Somerville) and the rod plus tissue were placed in a 15 ml isolated tissue bath (Radnoti). The other end of the glass rod was attached to a Grass Force Displacement Transducer FT03. The tissue was maintained in room temperature Tyrodes buffer pH 7.4 and continually gassed with 95% O2— 5% CO2. The tissues were adjusted to 1.0 g resting tension and maintained at that tension throughout the equilibration period. An Ml2 Tissue Bath Computer was used to record and analyze data.
The tissues were washed twice during a 30 minute equilibration period and readjusted to 1 g resting tension as necessary. After equilibration the tissues were challenged with 3 μM Carbachol (Carbamoylcholine Chloride-Sigma). After maximal contraction was attained, the tissues were washed 3 times with Tyrodes. The tissues were allowed a 20 minute resting/equilibration period, during which time they were washed once and readjusted to 1 g resting tension. The tissues were challenged a second time with 3 μM Carbachol, and this contraction was considered as maximal, or 100% contraction. The tissues were washed 3 times, equilibrated for 10 minutes, washed again and readjusted to 1 g resting tension. Vehicle or test compound in 30% DMSO-50 mM HEPES was added directly to the bath and the tissues were incubated for 20 minutes. Test compounds and vehicle were run in duplicate.
The percent inhibition by test compound of the motilin induced contraction was calculated by first determining the ratio of the vehicle contractions with Motilin compared to the Carbachol contractions. This Tissue Adjustment Factor (TAF) was used to determine the value for the potential uninhibited contraction with Motilin for each tissue. The percent inhibition was then determined by dividing the actual Motilin contraction in treated tissues by the potential uninhibited contraction and subtracting this number from 1. IC50 values were determined by graphing results with Kaleidograph graphing program.

[2] = molecular target: T2, motilin receptor preparation (Human antrum tissue) (Homo sapiens, UniProt O43193); test: 125I-motilin binding to human antral stomach membranes; conditions: human antrum membranes; @1 μM
T2 construct: Human antrum tissue from Analytical Biological Services (Wilmington, Del.) was prepared as a motilin receptor preparation; tissue Analytical Biological Services (Wilmington, Del.); host or cells: human antrum (stomach) muscle tissue, crude membrane homogenate
Experimental: Human antrum tissue from Analytical Biological Services (Wilmington, Del.) was prepared as a motilin receptor preparation in the following manner. The muscle tissue was homogenized in 10 volumes of 50 mM Tris-Cl, 10 mM MgCl2, 0.1 mg/ml bacitracin, and 0.25 mM Peflabloc, pH 7.5) in a Polytron (29000 rpm, 4×15 seconds). The homogenate was centrifuged at 1000×g for 15 minutes and the supernatant discarded. The pellet was washed twice before being suspended in homogenizing buffer. The crude homogenate was resuspended through a 23 gauge needle before aliquoting and storing at −80° C. The human cloned receptor was prepared from HEK 293 cells overexpressed with the motilin receptor. Cell pellets were thawed and resuspended in 2–3 volumes of homogenizing buffer (10 mM Tris-Cl, 0.2 mM MgCl2, 5 mM KCl, 5 μg/ml aprotinin, leupeptin, and pepstatin A, and 50 μg/ml bacitracin, pH 7.5) and allowed to sit on ice for 15–20 minutes. The suspension was homogenized on ice in a Dounce type homogenizer using 15 strokes. Sucrose and EDTA were added to a final concentration of 0.25M and 1 mM, respectively, and mixed with a few additional strokes. The material was centrifuged at 400×g for 5 minutes, and the supernatant saved. The pellet was re-resuspended twice with 5 ml homogenizing buffer and rehomogenized as before, and the supernatants combined. The supernatant was centrifuged at 100000×g for 1 hour. The pellet is retained and resuspended with 5 ml of homogenizing buffer through a 19 g and 25 g needle. The suspension is aliquoted and stored at −80° C. until used. The binding assay contains the following components (50 mM HEPES, 5 mM MgCl2, and 1 mM EGTA, pH 7.0, 15 mg/ml BSA, 10 μg/ml aprotinin, leupeptin, and pepstatin A, 0.25 mg/ml bacitracin, and 10 mM benzamidine), ^125I-radiolabelled porcine motilin (50000–70000 cpm; specific activity 2000 Ci/mmol), test compound, and membrane protein. After 60 minutes at 30° C., the samples are placed on ice and centrifuged for 1 minute at 13000×g. The pellet is washed twice with 1 ml cold saline, and after removal of the final supernatant, the pellet at the bottom of the tube is counted in a gamma counter. Non-specific binding is measured by the inclusion of 1 μM unlabelled motilin. IC50 values were determined from Kaleidograph curves.
125I-Motilin Binding to Human Antral Stomach Membranes and the Human Cloned Receptor: […]

T1 sequence (G1T803 1-400): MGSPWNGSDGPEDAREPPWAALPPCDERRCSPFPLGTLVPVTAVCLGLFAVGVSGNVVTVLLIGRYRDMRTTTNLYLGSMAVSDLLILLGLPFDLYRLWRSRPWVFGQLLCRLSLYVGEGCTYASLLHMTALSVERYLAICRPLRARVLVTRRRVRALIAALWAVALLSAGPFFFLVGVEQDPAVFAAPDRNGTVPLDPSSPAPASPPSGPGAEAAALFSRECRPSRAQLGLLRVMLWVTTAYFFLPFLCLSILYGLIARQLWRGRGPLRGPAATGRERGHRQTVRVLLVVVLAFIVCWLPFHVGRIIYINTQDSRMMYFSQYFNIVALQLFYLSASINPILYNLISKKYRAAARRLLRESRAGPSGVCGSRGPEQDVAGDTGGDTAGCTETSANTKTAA
T2 sequence (O43193 whole entry): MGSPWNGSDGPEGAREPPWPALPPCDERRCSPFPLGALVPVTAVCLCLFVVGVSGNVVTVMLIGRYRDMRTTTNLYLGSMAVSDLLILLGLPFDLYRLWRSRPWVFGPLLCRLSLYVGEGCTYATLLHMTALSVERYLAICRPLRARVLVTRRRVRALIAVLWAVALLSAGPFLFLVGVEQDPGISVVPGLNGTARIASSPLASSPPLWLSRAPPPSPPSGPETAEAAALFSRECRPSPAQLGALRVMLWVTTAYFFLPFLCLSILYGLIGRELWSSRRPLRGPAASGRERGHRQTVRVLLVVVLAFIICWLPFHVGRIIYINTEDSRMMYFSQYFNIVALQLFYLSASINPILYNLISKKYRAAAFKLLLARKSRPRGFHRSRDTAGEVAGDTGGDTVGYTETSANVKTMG

O=C(Nc1ccccc1)N(CC1CCCC(N(Cc2cccc([N+](=O)[O-])c2)C(=O)C(Cl)(Cl)Cl)C1)c1cccc(OCCN2CCOCC2)c1 (stereo not drawn) [compound 65]
inhibition (Motilin Receptor): 80% | IC50 (Motilin Receptor): 35 nM | IC50 [1]: 27 nM

O=C(c1ccc(F)cc1)N(CC1CCCC(N(Cc2ccccn2)C(=O)C(Cl)(Cl)Cl)C1)c1cccc(OCCN2CCOCC2)c1 (stereo not drawn) [compound 90]
inhibition (Motilin Receptor): 95% | IC50 (Motilin Receptor): 490 nM | IC50 [1]: > 300 nM

O=C(c1ccc(F)cc1)N(CC1CCCC(N(Cc2cccc([N+](=O)[O-])c2)C(=O)C(Cl)(Cl)Cl)C1)c1cccc(OCCN2CCOCC2)c1 (stereo not drawn) [compound 93]
inhibition (Motilin Receptor): 100% | IC50 (Motilin Receptor): 90 nM | IC50 [1]: 20.5 nM

O=C(c1ccc(F)cc1)N(CC1CCCC(N(Cc2cccc(C(F)(F)F)c2)C(=O)C(Cl)(Cl)Cl)C1)c1cccc(OCCN2CCOCC2)c1 (stereo not drawn) [compound 96]
inhibition (Motilin Receptor): 71% | IC50 (Motilin Receptor): 1680 nM | IC50 [1]: > 30 nM

CC(C)(C)C(=O)N(Cc1cccc(Cl)c1)C1CCCC(CN(C(=O)c2ccc(F)cc2)c2cccc(OCCN3CCOCC3)c2)C1 (stereo not drawn) [compound 105]
inhibition (Motilin Receptor): 80% | IC50 (Motilin Receptor): 390 nM | IC50 [1]: 30 nM

O=C(CCCC(=O)N1CCc2ccccc2C1c1ccccc1)N(Cc1ccc(F)cc1)c1cccc(OCCN2CCOCC2)c1 (stereo not drawn) [compound 153]
inhibition (Motilin Receptor): 89% | IC50 (Motilin Receptor): 81 nM | IC50 [1]: 30 nM

O=C(CCCC(=O)N(Cc1ccc(F)cc1)c1cccc(OCCN2CCOCC2)c1)N(CCc1ccccc1)Cc1cccc(Cl)c1 [compound 162]
inhibition (Motilin Receptor): 85% | IC50 (Motilin Receptor): 178 nM | IC50 [1]: 21 nM

O=C(CCC(=O)N(Cc1ccc(F)cc1)c1cccc(OCCN2CCOCC2)c1)N(CCc1ccccc1)Cc1cccc(Cl)c1 [compound 163]
inhibition (Motilin Receptor): 85% | IC50 (Motilin Receptor): 174 nM | IC50 [1]: 19 nM

O=C(CCC(=O)N(Cc1cccc(F)c1)c1cccc(OCCN2CCOCC2)c1)N(CCc1ccccc1)Cc1ccccc1 [compound 164]
inhibition (Motilin Receptor): 84% | IC50 (Motilin Receptor): 194 nM | IC50 [1]: 48 nM

O=C(CCCC(=O)N(Cc1cccc(F)c1)c1cccc(OCCN2CCOCC2)c1)N(CCc1ccccc1)Cc1ccccc1 [compound 169]
inhibition (Motilin Receptor): 97% | IC50 (Motilin Receptor): 46 nM | IC50 [1]: 240 nM

O=C(CCCC(=O)N(Cc1ccccc1F)c1cccc(OCCN2CCOCC2)c1)N(CCc1ccccc1)Cc1ccccc1 [compound 170]
inhibition (Motilin Receptor): 81% | IC50 (Motilin Receptor): 163 nM | IC50 [1]: 185 nM

COc1ccc(CN(C(=O)CCCC(=O)N(CCc2ccccc2)Cc2ccccc2)c2cccc(OCCN3CCOCC3)c2)cc1 [compound 171]
inhibition (Motilin Receptor): 63% | IC50 (Motilin Receptor): 462 nM | IC50 [1]: 230 nM

O=C(CCCC(=O)N(Cc1ccc(Cl)cc1)c1cccc(OCCN2CCOCC2)c1)N(CCc1ccccc1)Cc1ccccc1 [compound 173]
inhibition (Motilin Receptor): 84% | IC50 (Motilin Receptor): 290 nM | IC50 [1]: 280 nM

CCN(CC)CCOc1cccc(N(Cc2ccc(F)cc2)C(=O)CCCC(=O)N(CCc2ccccc2)Cc2ccccc2)c1 [compound 178]
inhibition (Motilin Receptor): 100% | IC50 (Motilin Receptor): 70 nM | IC50 [1]: 15 nM

O=C(CCCC(=O)N(Cc1ccc(F)cc1)c1cccc(OCCN2CCNCC2)c1)N(CCc1ccccc1)Cc1ccccc1 [compound 179]
inhibition (Motilin Receptor): 85% | IC50 (Motilin Receptor): 240 nM | IC50 [1]: 23 nM

O=C(CCCC(=O)N(Cc1ccc(F)cc1)c1cccc(OCCN2CCCC2)c1)N(CCc1ccccc1)Cc1ccccc1 [compound 180]
inhibition (Motilin Receptor): 99% | IC50 (Motilin Receptor): 14 nM | IC50 [1]: 11 nM

CN(C)CCOc1cccc(N(Cc2ccc(F)cc2)C(=O)CCCC(=O)N(CCc2ccccc2)Cc2ccccc2)c1 [compound 181]
inhibition (Motilin Receptor): 100% | IC50 (Motilin Receptor): 93 nM | IC50 [1]: 12 nM

O=C(CCCC(=O)N(Cc1ccc(F)cc1)c1cccc(OCCN2CCCCC2)c1)N(CCc1ccccc1)Cc1ccccc1 [compound 182]
inhibition (Motilin Receptor): 94% | IC50 (Motilin Receptor): 22 nM | IC50 [1]: 53 nM

O=C(CCCC(=O)N(Cc1ccc(F)cc1)c1cccc(OCCCN2CCCCC2)c1)N(CCc1ccccc1)Cc1ccccc1 [compound 188]
inhibition (Motilin Receptor): 100% | IC50 (Motilin Receptor): 247 nM | IC50 [1]: 92 nM

Cc1c(OCCN2CCCC2)cccc1N(Cc1ccc(F)cc1)C(=O)CCCC(=O)N(CCc1ccccc1)Cc1ccccc1 [compound 196]
inhibition (Motilin Receptor): 100% | IC50 (Motilin Receptor): 6 nM | IC50 [1]: 4 nM

O=C(CCCC(=O)N(Cc1ccc(F)cc1)c1cccc(OCCN2CCCC2)c1)N(CCc1ccccc1)Cc1cccc([N+](=O)[O-])c1 [compound 197]
inhibition (Motilin Receptor): 85% | IC50 (Motilin Receptor): 9 nM | IC50 [1]: 7.6 nM

O=C(CCCC(=O)N(Cc1ccc(F)cc1)c1cccc(OCCN2CCCC2)c1)N(CCc1ccccn1)Cc1cccc(Cl)c1 [compound 201]
inhibition (Motilin Receptor): 93% | IC50 (Motilin Receptor): 57 nM | IC50 [1]: 16.8 nM

O=C(CCCC(=O)N(Cc1ccc(F)cc1)c1cccc(OCCN2CCCC2)c1)N(CCc1ccc(Cl)cc1)Cc1cccc(Cl)c1 [compound 202]
inhibition (Motilin Receptor): 100% | IC50 (Motilin Receptor): 330 nM | IC50 [1]: 230 nM

O=C(CCCC(=O)N(Cc1ccc(F)cc1)c1cccc(OCCN2CCCC2)c1)N(CCc1cccs1)Cc1cccc(Cl)c1 [compound 204]
inhibition (Motilin Receptor): 89% | IC50 (Motilin Receptor): 29 nM | IC50 [1]: 3 nM

Cc1c(OCCN2CCCC2)cccc1N(CC1CCCC(N(Cc2cccc(Cl)c2)C(=O)C(Cl)(Cl)Cl)C1)C(=O)c1ccc(F)cc1 (stereo not drawn) [compound 209]
inhibition (Motilin Receptor): 84% | IC50 (Motilin Receptor): 59 nM | IC50 [1]: 21 nM

Cc1c(OCCN2CCCC2)cccc1N(CC1CCCC(N(Cc2ccccc2)C(=O)C(Cl)(Cl)Cl)C1)C(=O)c1ccc(F)cc1 (stereo not drawn) [compound 210]
inhibition (Motilin Receptor): 90% | IC50 (Motilin Receptor): 86 nM | IC50 [1]: 24 nM

O=C(c1ccc(F)cc1)N(CC1CCCC(N(Cc2ccccc2)C(=O)C(Cl)(Cl)Cl)C1)c1cccc(OCCN2CCCC2)c1 (stereo not drawn) [compound 213]
inhibition (Motilin Receptor): 84% | IC50 (Motilin Receptor): 58 nM | IC50 [1]: 27 nM

CC(C)(C)C(=O)N(Cc1ccccc1)[C@@H]1CCC[C@H](CN(C(=O)c2ccc(F)cc2)c2cccc(OCCN3CCCC3)c2)C1 [compound 214]
IC50 [1]: 24 nM

CC(C)(C)C(=O)N(Cc1ccccc1)C1CCC(CN(C(=O)c2ccc(F)cc2)c2cccc(OCCN3CCCC3)c2)C1 (stereo not drawn) [compound 216]
Human Antrum % Inh @1 μM [2]: 100%

CC(C)(C)C(=O)N(Cc1cccc(Cl)c1)C1CCC(CN(C(=O)c2ccc(F)cc2)c2cccc(OCCN3CCCC3)c2)C1 (stereo not drawn) [compound 217]
Human Antrum % Inh @1 μM [2]: 98%
